Patent publication US20060165644A1, “Cosmetics” (Fancl Corporation, priority 2002, published 2006)

Tested on: Pseudomonas aeruginosa, Escherichia coli, Staphylococcus aureus
Assay: Evaluation of reduction effect for inoculated bacteria
Format: cell-based
Details: about 10^7 bacteria per 1 g sample; 7 days at 25° C.; plate count
Experimental: Pseudomonas aeruginosa, Escherichia coli, Staphylococcus aureus of about 10^7 were inoculated to the samples shown in Table 3 per 1 g of the respective samples. The viable microbe cell number were measured by plate count method after cultivation for 7 days at 25° C.
The viable microbe cell number on seventh day was calculated as a residual rate by defining the number of inoculated microbes to 100%, and the antibacterial activity of the samples was evaluated by classifying the residual rate into standards of four ranks as follow.

Row | SMILES | Antibacterial activity (residual rate of viable microbes)
1 | CC(O)CCO (centres unmarked) [Sample 9, 1,3-butylene glycol] | ◯ (Residual rate lower than 10%, not lower than 0.01%)
2 | CCCC(O)CO (centres unmarked) [Sample 10, 1,2-pentanediol] | ◯ (Residual rate lower than 10%, not lower than 0.01%)
